Experimental data as given in patent US9682092B2, “Boron-containing small molecules as anti-inflammatory agents” (ANACOR PHARMACEUTICALS, INC., priority 2006, dated 2017).

Compound | melting point [°C]
N#Cc1ccc(Oc2ccc(B(O)O)cc2)cc1 | 194 to 198
COc1ccc2c(c1)COB2O [C7, 1,3-Dihydro-1-hydroxy-5-methoxy-2,1-benzoxaborole] | 102 to 104
Cc1ccc2c(c1)COB2O [C8, 1,3-Dihydro-1-hydroxy-5-methyl-2,1-benzoxaborole] | 124 to 128
OB1OCc2ccc(F)cc21 [C13, 1,3-Dihydro-6-fluoro-1-hydroxy-2,1-benzoxaborole] | 110 to 117.5
N#Cc1cccc(Oc2ccc3c(c2)B(O)OC3)c1 [C19, 6-(3-Cyanophenoxy)-1,3-dihydro-1-hydroxy-2,1-benzoxaborole] | 146 to 149
OB1OCc2ccc(Oc3ccc(Cl)cc3)cc21 [C20, 6-(4-Chlorophenoxy)-1,3-dihydro-1-hydroxy-2,1-benzoxaborole] | 119 to 130
OB1OCc2ccc(Oc3ccccc3)cc21 [C21, 6-Phenoxy-1,3-dihydro-1-hydroxy-2,1-benzoxaborole] | 95 to 99
OB1OCc2ccc(Sc3ccccc3)cc21 [C28, 6-Phenylthio-1,3-dihydro-1-hydroxy-2,1-benzoxaborole] | 121 to 124
OB1OCc2ccc(Oc3ccc(OC(F)(F)F)cc3)cc21 [C29, 6-(4-trifluoromethoxyphenoxy)-1,3-dihydro-1-hydroxy-2,1-benzoxaborole] | 97 to 101
CN(c1ccc2c(c1)COB2O)S(=O)(=O)c1ccccc1 [C30, 5-(N-Methyl-N-phenylsulfonylamino)-1,3-dihydro-1-hydroxy-2,1-benzoxaborole] | 85 to 95
COc1ccc(Oc2ccc3c(c2)B(O)OC3)cc1 [C31, 6-(4-Methoxyphenoxy)-1,3-dihydro-1-hydroxy-2,1-benzoxaborole] | 126 to 129
COc1ccc(Sc2ccc3c(c2)B(O)OC3)cc1 [C32, 6-(4-Methoxyphenylthio)-1,3-dihydro-1-hydroxy-2,1-benzoxaborole] | 95 to 100
COc1ccc(S(=O)(=O)c2ccc3c(c2)B(O)OC3)cc1 [C33, 6-(4-Methoxyphenylsulfonyl)-1,3-dihydro-1-hydroxy-2,1-benzoxaborole] | 180 to 192
CCOC(=O)COc1ccc2c(c1)COB2O [C41, Ethyl 2-(1-hydroxy-1,3-dihydrobenzo[c][1,2]oxaborol-5-yloxy)acetate] | 134 to 137
O=C(O)COc1ccc2c(c1)COB2O [C42, 2-(1-hydroxy-1,3-dihydrobenzo[c][1,2]oxaborol-5-yloxy)acetic acid] | 163 to 166
OB1OCc2ccc(Sc3cccs3)cc21 [C43, 6-(thiophen-2-ylthio)benzo[c][1,2]oxaborol-1(3H)-ol] | 99 to 104
OB1OCc2ccc(Sc3ccc(F)cc3)cc21 [C44, 6-(4-fluorophenylthio)benzo[c][1,2]oxaborol-1(3H)-ol] | 135 to 138
CCCCC(=O)c1cccc(COc2ccc3c(c2)COB3O)c1 [C45, 1-(3-((1-hydroxy-1,3-dihydrobenzo[c][1,2]oxaborol-5-yloxy)methyl)phenyl)pentan-1-one] | 96 to 98
O=C(COc1ccc2c(c1)COB2O)N1CCCCC1 [C46, 2-(1-hydroxy-1,3-dihydrobenzo[c][1,2]oxaborol-5-yloxy)-1-(piperidin-1-yl)ethanone] | 158 to 163
O=C(COc1ccc2c(c1)COB2O)N1CCN(c2ncccn2)CC1 [C47, 2-(1-hydroxy-1,3-dihydrobenzo[c][1,2]oxaborol-5-yloxy)-1-(4-(pyrimidin-2-yl)piperazin-1-yl)ethanone] | 190 to 195
OB1OCc2ccc(N3CCN(c4ccccn4)CC3)cc21 [C48, 6-(4-(pyridin-2-yl)piperazin-yl)benzo[c][1,2]oxaborol-1(3H)-ol] | 135 to 138
CN(C)c1ccc2c(c1)B(O)OC2 [C51, 6-(dimethylamino)benzo[c][1,2]oxaborol-1(3H)-ol] | 120 to 123
O=C(Nc1ccc2c(c1)B(O)OC2)c1ccccc1 [C52, N-(1-hydroxy-1,3-dihydrobenzo[c][1,2]oxaborol-6-yl)benzamide] | 186 to 193
OB1OCc2ccc(N3CCN(c4ccccc4)CC3)cc21 [C53, 6-(4-phenylpiperazin-1-yl)benzo[c][1,2]oxaborol-1(3H)-ol] | 159 to 161
OB1OCc2ccc(-n3ccc4ccccc43)cc21 [C55, 6-(1H-indol-1-yl)benzo[c][1,2]oxaborol-1(3H)-ol] | 135 to 140
OB1OCc2ccc(N3CCOCC3)cc21 [C56, 6-morpholinobenzo[c][1,2]oxaborol-1(3H)-ol] | 128 to 132
O=[N+]([O-])c1cc2c(cc1F)COB2O [C58, 5-fluoro-6-nitrobenzo[c][1,2]oxaborol-1(3H)-ol] | 162 to 167
OCc1cc2c(cc1Br)COB2O [C59, 5-bromo-6-(hydroxymethyl)benzo[c][1,2]oxaborol-1(3H)-ol] | > 257

Compound | melting point [°C]
OB1OCc2cc3c(cc21)COB3O [C60, 3,7-dihydro-1,5-dihydroxy-1H,3H-Benzo[1,2-c:4,5-c′]bis[1,2]oxaborole] | > 250
O=S(=O)(Nc1ccc2c(c1)B(O)OC2)c1ccccc1 [C62, N-(1-hydroxy-1,3-dihydrobenzo[c][1,2]oxaborol-6-yl)benzenesulfonamide] | 175 to 184
CC(=O)Nc1ccc2c(c1)B(O)OC2 [C63, N-(1-hydroxy-1,3-dihydrobenzo[c][1,2]oxaborol-6-yl)acetamide] | 176 to 185
OCc1cccc2c1B(O)OC2 [C64, 7-(hydroxymethyl)benzo[c][1,2]oxaborol-1(3H)-ol] | 241 to 250
Cc1cccc2c1B(O)OC2 [C65, 7-methylbenzo[c][1,2]oxaborol-1(3H)-ol] | 107 to 111
OB1OCc2ccc(-n3cc(Sc4ccccc4)c4ccccc43)cc21 [C66, 6-(3-(phenylthio)-1H-indol-1-yl)benzo[c][1,2]oxaborol-1(3H)-ol] | 159 to 163
N#CCCSc1cn(-c2ccc3c(c2)B(O)OC3)c2ccccc12 [C67, 3-(1-(1-hydroxy-1,3-dihydrobenzo[c][1,2]oxaborol-6-yl)-1H-indol-3-ylthio)propanenitrile] | 135 to 141
COc1ccc2c(ccn2-c2ccc3c(c2)B(O)OC3)c1 [C68, 6-(5-methoxy-1H-indol-1-yl)benzo[c][1,2]oxaborol-1(3H)-ol] | 120 to 124
OB1OCc2cc3c(cc21)OCO3 [C69, 5,6-methylenedioxybenzo[c][1,2]oxaborol-1(3H)-ol.] | 185 to 189
Nc1cc2c(cc1F)COB2O [C70, 6-amino-5-fluorobenzo[c][1,2]oxaborol-1(3H)-ol] | 142 to 145
OB1OCc2cc(F)c(NCc3ccccc3)cc21 [C71, 6-(benzylamino)-5-fluorobenzo[c][1,2]oxaborol-1(3H)-ol] | 159 to 164
COc1ccc2c(c1)c(Sc1ccccc1)cn2-c1ccc2c(c1)B(O)OC2 [C72, 6-(5-methoxy-3-(phenylthio)-1H-indol-1-yl)benzo[c][1,2]oxaborol-1(3H)-ol] | 135 to 141
COc1ccc2c(c1)c(SCCC#N)cn2-c1ccc2c(c1)B(O)OC2 [C73, 3-(1-(1-hydroxy-1,3-dihydrobenzo[c][1,2]oxaborol-6-yl)-5-methoxy-1H-indol-3-ylthio)propanenitrile] | 149 to 154
N#Cc1ccc(Oc2cccc3c2B(O)OC3)cc1 [C74, 4-(1-hydroxy-1,3-dihydrobenzo[c][1,2]oxaborol-7-yloxy)benzonitrile] | 148 to 153
OB1OCc2ccc(-n3ccc4cc(Cl)ccc43)cc21 [C75, 6-(5-chloro-1H-indol-1-yl)benzo[c][1,2]oxaborol-1(3H)-ol] | 149 to 154
N#CCCSc1cn(-c2ccc3c(c2)B(O)OC3)c2ccc(Cl)cc12 [C76, 3-(5-chloro-1-(1-hydroxy-1,3-dihydrobenzo[c][1,2]oxaborol-6-yl)-1H-indol-3-ylthio)propanenitrile] | > 225
OB1OCc2ccc(NCc3ccccc3)cc21 [C77, 6-(benzylamino)benzo[c][1,2]oxaborol-1(3H)-ol] | 126 to 133
OB1OCc2ccc(N(Cc3ccccc3)Cc3ccccc3)cc21 [C78, 6-(dibenzylamino)benzo[c][1,2]oxaborol-1(3H)-ol] | 115 to 123
OB1OCc2ccc(-n3cc(Sc4ccccc4)c4cc(Cl)ccc43)cc21 [C80, 6-(5-chloro-3-(phenylthio)-1H-indol-1-yl)benzo[c][1,2]oxaborol-1(3H)-ol] | 145 to 151
OB1OCc2cccc(F)c21 [C86, 7-fluorobenzo[c][1,2]oxaborol-1(3H)-ol] | 120 to 124
OB1OCc2ccc(Oc3ccc(C(F)(F)F)cc3)cc21 [C87, 6-(4-(trifluoromethyl)phenoxy)benzo[c][1,2]oxaborol-1(3H)-ol] | 98 to 105
OB1OCc2ccc(Sc3ccc(Cl)cc3)cc21 [C88, 6-(4-chlorophenylthio)benzo[c][1,2]oxaborol-1(3H)-ol] | 157 to 161
[O-][S+](c1ccc(Cl)cc1)c1ccc2c(c1)B(O)OC2 (stereo not shown) [C89, 6-(4-chlorophenylsulfinyl)benzo[c][1,2]oxaborol-1(3H)-ol] | 154 to 161
O=S(=O)(c1ccc(Cl)cc1)c1ccc2c(c1)B(O)OC2 [C90, 6-(4-chlorophenylsulfonyl)benzo[c][1,2]oxaborol-1(3H)-ol] | 157 to 163
O=S(=O)(c1ccccc1)N(c1ccc2c(c1)COB2O)S(=O)(=O)c1ccccc1 [C91, N-(1-hydroxy-1,3-dihydrobenzo[c][1,2]oxaborol-5-yl)-N-(phenylsulfonyl)benzenesulfonamide] | 142 to 152
OB1OCc2ccc(Sc3ccc(C(F)(F)F)cc3)cc21 [C92, 6-(4-(trifluoromethyl)phenylthio)benzo[c][1,2]oxaborol-1(3H)-ol] | 111 to 113
[O-][S+](c1ccc(C(F)(F)F)cc1)c1ccc2c(c1)B(O)OC2 (stereo not shown) [C93, 6-(4-(trifluoromethyl)phenylsulfinyl)benzo[c][1,2]oxaborol-1(3H)-ol] | 79 to 88
